From the NIST ThermoML archive (doi:10.1016/j.tca.2012.11.004)
Numbers after ± are expanded uncertainties.

Legend:
[1] = 298.15 K; 101.33 kPa; Liquid; Vibrating tube method
[2] = refractive index (Na D-line) (dimensionless); conditions: 101.33 kPa, Liquid, Standard Abbe refractometry

mass density [1]	refractive index ([2]; 298.15 K)	refractive index ([2]; 298.1 K)	SMILES
1129.16 ± 0.16 kg/m3	1.4465 ± 0.0007		NC=O [formamide]
936.38 ± 0.08 kg/m3		1.4358 ± 0.0007	CC(=O)N(C)C [N,N-dimethylethanamide]
998.94 ± 0.23 kg/m3	1.4302 ± 0.0007		CNC=O [N-methylformamide]
943.9 ± 0.11 kg/m3	1.4281 ± 0.0007		CN(C)C=O [dimethylformamide]
